Experimental data published in PubChem BioAssay AID1918932 (Molecular Pharmacology Branch, DTP, NCI, 2023).
Where “and” joins values, the source holds several entries; their conditions need not be identical. Equal entries are not always repeated.

System: 171881-019-R-J1-PDC complex spheroid viability
Assay: Anticancer human tumor 171881-019-R-J1-PDC patient-derived invasive breast carcinoma cell line growth inhibition
Conditions: for viability, T/C: stronger effect = lower value
Excerpt: Multicellular complex tumor spheroid response to LSD1 Inhibitor Iadademstat in combination with a variety of drugs and investigational agents in selected tumor cell lines
The current study was undertaken to assess response to LSD1 inhibitors in combination with standard-of-care drugs and investigational agents in solid tumor complex spheroid models as well as in the K-562 leukemia. Complex spheroids include a stromal component modeled by human endothelial cells (HUVEC) and fibroblasts modeled by human mesenchymal stem cells (MSCs). The concentration ranges selected for each drug and investigational agent were based upon clinically achievable concentrations if the clinical Cmax of the agent was known.
Compounds. The drugs and investigational agents used in this study are listed on Table 1. All of the agents used, including staurosporine (NSC755774) and gemcitabine (NSC613327), were obtained from the Developmental Therapeutics Program, NCI. FDA-approved anticancer drugs are available from the NCI at http://dtp.nci.nih.gov/branches/dscb/oncology_drugset_explanation.html. Drugs and investigational agents were >95% pure by proton nuclear magnetic resonance (NMR) and liquid chromatography/mass spectrometry (LC/MS). Stock solutions were prepared at 400x in DMSO, stored at -70 degrees C, and diluted in fresh medium prior to their use. The final concentration of DMSO in cell culture wells never exceeded 0.25% (v/v). The FDA-approved anticancer drug set is available from the Developmental Therapeutics Program at https://dtp.cancer.gov/organization/dscb/obtaining/available_plates.htm. All drugs and investigational agents were tested over a range starting from a high concentration at or near the clinical Cmax and decreasing in half-log increments. If the clinical Cmax for an agent had not been determined, the highest concentration tested was 10 microM.
Cell Lines. The patient-derived cancer cell (PDC) lines: 292921-168-R-J2-PDC, K24384-001-R-PDC, and 521955-158-R2-J5-PDC pancreatic carcinomas, 556581-035-R-J1 ovarian carcinoma, 324938-238-R-J1-PDC, 855422-203-R-J1-PDC and 883617-216-R-J1-PDC urothelial bladder carcinomas, 743489-274-T-PDC renal cell carcinoma, 138582-R-J1 Merkel cell tumor, K60290-347-R-J1 and K57222-313-R-J1-PDC glioblastomas, 653999-131-R-J2-PDC, LG0703-F948-PDC, and 349418-098-R-PDC non-small cell lung carcinomas, 885512-296-R-J2-PDC, 171881-019-R-J1-PDC breast carcinomas and 186277-243-T-J2-PDC and 233499-124-R-J2-PDC colon carcinomas were obtained from the NCI Patient-Derived Models Repository (PDMR, https://pdmr.cancer.gov). The established cell lines NCI/ADR-RES (RRID:CVCL_14520 and OVCAR-5 (RRID:CVCL_1628) ovarian carcinomas, 786-O (RRID:CVCL_1051) and A498 (RRID:CVCL_A498) renal cell carcinoma, NCI-H211 (ATCC, cat. CRL-5824; RRID:CVCL_1529), NCI-H196 (ATCC, cat. CRL-5823, RRID:CVCL_1509), SW 1271 (ATCC, cat. CRL-2177, RRID:CVCL_1716) and NCI-H1876 (ATCC, cat. CRL-5902, RRID:CVCL_1503) small cell lung carcinomas, MDA-MB-231 (RRID:CVCL_0062) and MDA-MB-468 (RRID:CVCL_0419)breast carcinomas (10-12). Pooled donor human umbilical vein endothelial cells (HUVEC, Lonza, cat. CC-2519) and human mesenchymal stem cells (hMSC, Lonza, cat. PT-2501) were purchased from Lonza (Walkersville, MD).
Cell Culture. All cells were maintained in an incubator at 37 degrees C and 5% CO2 with 95% humidity. The PDC lines were cultured according to standard operating procedures established by the NCI PDMR (https://pdmr.cancer.gov). Briefly all PDCs were thawed and cultured in Matrigel-coated flasks prepared with a working solution of 1X Ham's F-12 nutrient mix, without supplementation (Invitrogen, Waltham, MA, cat. 11765054), 100 U/mL penicillin-streptomycin (Invitrogen, cat. 15140122), and 2.5% Matrigel (Corning Inc., Corning, NY, cat. 354248) for the first three passages. […]

[1] = curve of first compound, second compound 0.1 µM
[2] = curve of first compound, second compound 0.316 µM
[3] = curve of first compound, second compound 1 µM
[4] = curve of first compound, second compound 3.16 µM
[5] = curve of first compound, second compound 10 µM
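Further: spheroids exposed to agents for 7 days after 3 days growth.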

Question: `CCN(c1cc(-c2ccc(CN3CCOCC3)cc2)cc(C(=O)NCc2c(C)cc(C)[nH]c2=O)c1C)C1CCOCC1` + NC1CCC(NC2CC2c2ccccc2)CC1 was tested. Which IC50 [1] did it give?
Answer: 2670 nM

Question: And the IC50 [2]?
Answer: 2850 nM

Question: What about the IC50 [3] of the same compound?
Answer: 2680 nM

Question: What about the IC50 [4] of the same compound?
Answer: 2730 nM

Question: And the IC50 [5]?
Answer: 2880 nM

Question: What about the viability, T/C (second compound 0.1 µM, first compound 0.00949 µM) of the same compound?
Answer: 76.3%

Question: And the viability, T/C (second compound 0.1 µM, first compound 0.03 µM)?
Answer: 85%

Question: And the viability, T/C (second compound 0.1 µM, first compound 0.0949 µM)?
Answer: 81.3%

Question: And the viability, T/C (second compound 0.1 µM, first compound 0.3 µM)?
Answer: 101%

Question: And the viability, T/C (second compound 0.1 µM, first compound 0.949 µM)?
Answer: 74.1%

Question: What about the viability, T/C (second compound 0.1 µM, first compound 3 µM) of the same compound?
Answer: 47.3%

Question: What about the viability, T/C (second compound 0.316 µM, first compound 0.00949 µM) of the same compound?
Answer: 84.7%

Question: What about the viability, T/C (second compound 0.316 µM, first compound 0.03 µM) of the same compound?
Answer: 78.2%

Question: And the viability, T/C (second compound 0.316 µM, first compound 0.0949 µM)?
Answer: 72.6%

Question: And the viability, T/C (second compound 0.316 µM, first compound 0.3 µM)?
Answer: 94.3%

Question: And the viability, T/C (second compound 0.316 µM, first compound 0.949 µM)?
Answer: 76.6%

Question: And the viability, T/C (second compound 0.316 µM, first compound 3 µM)?
Answer: 48.8%

Question: What about the viability, T/C (second compound 1 µM, first compound 0.00949 µM) of the same compound?
Answer: 69.2%

Question: And the viability, T/C (second compound 1 µM, first compound 0.03 µM)?
Answer: 77.3%

Question: And the viability, T/C (second compound 1 µM, first compound 0.0949 µM)?
Answer: 73.6%

Question: And the viability, T/C (second compound 1 µM, first compound 0.3 µM)?
Answer: 88.7%

Question: And the viability, T/C (second compound 1 µM, first compound 0.949 µM)?
Answer: 79.9%

Question: What about the viability, T/C (second compound 1 µM, first compound 3 µM) of the same compound?
Answer: 47%

Question: What about the viability, T/C (second compound 3.16 µM, first compound 0.00949 µM) of the same compound?
Answer: 80.6%

Question: And the viability, T/C (second compound 3.16 µM, first compound 0.03 µM)?
Answer: 81.7%

Question: What about the viability, T/C (second compound 3.16 µM, first compound 0.0949 µM) of the same compound?
Answer: 84.9%

Question: And the viability, T/C (second compound 3.16 µM, first compound 0.3 µM)?
Answer: 81.8%

Question: And the viability, T/C (second compound 3.16 µM, first compound 0.949 µM)?
Answer: 70.3%

Question: What about the viability, T/C (second compound 3.16 µM, first compound 3 µM) of the same compound?
Answer: 48.3%

Question: And the viability, T/C (second compound 10 µM, first compound 0.00949 µM)?
Answer: 80.4%

Question: What about the viability, T/C (second compound 10 µM, first compound 0.03 µM) of the same compound?
Answer: 75.1%

Question: What about the viability, T/C (second compound 10 µM, first compound 0.0949 µM) of the same compound?
Answer: 76.5%

Question: What about the viability, T/C (second compound 10 µM, first compound 0.3 µM) of the same compound?
Answer: 90.7%

Question: What about the viability, T/C (second compound 10 µM, first compound 0.949 µM) of the same compound?
Answer: 77.9%

Question: What about the viability, T/C (second compound 10 µM, first compound 3 µM) of the same compound?
Answer: 49%

Question: For `COc1ccc([C@@H](O)c2cc(-c3ncnc4cc(N5CCOCC5)ccc34)c(F)cc2Cl)nn1` + NC1CC1c1ccc(-c2cccc(O)c2)cc1, which IC50 [1] is on record?
Answer: 624 nM

Question: What about the IC50 [2] of the same compound?
Answer: 672 nM

Question: What about the IC50 [3] of the same compound?
Answer: 753 nM

Question: And the IC50 [4]?
Answer: 804 nM

Question: And the IC50 [5]?
Answer: 606 nM

Question: And the viability, T/C (second compound 0.1 µM, first compound 0.0316 µM)?
Answer: 100%

Question: What about the viability, T/C (second compound 0.1 µM, first compound 0.1 µM) of the same compound?
Answer: 99.9%

Question: What about the viability, T/C (second compound 0.1 µM, first compound 0.316 µM) of the same compound?
Answer: 78.9%

Question: And the viability, T/C (second compound 0.1 µM, first compound 1 µM)?
Answer: 30.5%

Question: What about the viability, T/C (second compound 0.1 µM, first compound 3.16 µM) of the same compound?
Answer: 7.18%

Question: And the viability, T/C (second compound 0.1 µM, first compound 10 µM)?
Answer: 11%

Question: What about the viability, T/C (second compound 0.316 µM, first compound 0.0316 µM) of the same compound?
Answer: 103%

Question: And the viability, T/C (second compound 0.316 µM, first compound 0.1 µM)?
Answer: 100%

Question: And the viability, T/C (second compound 0.316 µM, first compound 0.316 µM)?
Answer: 81.2%

Question: What about the viability, T/C (second compound 0.316 µM, first compound 1 µM) of the same compound?
Answer: 34.4%

Question: And the viability, T/C (second compound 0.316 µM, first compound 3.16 µM)?
Answer: 8.07%

Question: What about the viability, T/C (second compound 0.316 µM, first compound 10 µM) of the same compound?
Answer: 11%

Question: What about the viability, T/C (second compound 1 µM, first compound 0.0316 µM) of the same compound?
Answer: 108%

Question: And the viability, T/C (second compound 1 µM, first compound 0.1 µM)?
Answer: 107%

Question: What about the viability, T/C (second compound 1 µM, first compound 0.316 µM) of the same compound?
Answer: 85.9%

Question: And the viability, T/C (second compound 1 µM, first compound 1 µM)?
Answer: 39.2%

Question: And the viability, T/C (second compound 1 µM, first compound 3.16 µM)?
Answer: 8.76%

Question: And the viability, T/C (second compound 1 µM, first compound 10 µM)?
Answer: 9.94%

Question: And the viability, T/C (second compound 3.16 µM, first compound 0.0316 µM)?
Answer: 104%

Question: What about the viability, T/C (second compound 3.16 µM, first compound 0.1 µM) of the same compound?
Answer: 106%

Question: And the viability, T/C (second compound 3.16 µM, first compound 0.316 µM)?
Answer: 92.1%

Question: And the viability, T/C (second compound 3.16 µM, first compound 1 µM)?
Answer: 40.8%

Question: What about the viability, T/C (second compound 3.16 µM, first compound 3.16 µM) of the same compound?
Answer: 7.82%

Question: And the viability, T/C (second compound 3.16 µM, first compound 10 µM)?
Answer: 10.7%

Question: And the viability, T/C (second compound 10 µM, first compound 0.0316 µM)?
Answer: 84.8%

Question: What about the viability, T/C (second compound 10 µM, first compound 0.1 µM) of the same compound?
Answer: 88.6%

Question: What about the viability, T/C (second compound 10 µM, first compound 0.316 µM) of the same compound?
Answer: 75.2%

Question: What about the viability, T/C (second compound 10 µM, first compound 1 µM) of the same compound?
Answer: 30.6%

Question: What about the viability, T/C (second compound 10 µM, first compound 3.16 µM) of the same compound?
Answer: 8.18%

Question: What about the viability, T/C (second compound 10 µM, first compound 10 µM) of the same compound?
Answer: 9.78%

Question: For `CCN(c1cc(-c2ccc(CN3CCOCC3)cc2)cc(C(=O)NCc2c(C)cc(C)[nH]c2=O)c1C)C1CCOCC1`, which viability, T/C (compound 0.00949 µM) is on record?
Answer: 81.1% and 94.4%

Question: And the viability, T/C (compound 0.03 µM)?
Answer: 86.6% and 102%

Question: What about the viability, T/C (compound 0.0949 µM) of the same compound?
Answer: 92.5% and 86.2%

Question: What about the viability, T/C (compound 0.3 µM) of the same compound?
Answer: 102% and 82.3%

Question: What about the viability, T/C (compound 0.949 µM) of the same compound?
Answer: 89.9% and 64.9%

Question: What about the viability, T/C (compound 3 µM) of the same compound?
Answer: 46.9% and 40.9%

Question: And the IC50 (curve of compound)?
Answer: 2760 nM and 1950 nM

Question: How did the viability, T/C (compound 0.00949 µM) turn out when `NS(=O)(=O)OCC1CC(n2ccc3c(NC4CCc5ccccc54)ncnc32)CC1O` (centres undefined) was run?
Answer: 101% and 40.4%

Question: What about the viability, T/C (compound 0.03 µM) of the same compound?
Answer: 44.4% and 34.8%

Question: And the viability, T/C (compound 0.0949 µM)?
Answer: 25.8% and 27.8%

Question: What about the viability, T/C (compound 0.3 µM) of the same compound?
Answer: 24.2% and 25.3%

Question: And the viability, T/C (compound 0.949 µM)?
Answer: 25.5% and 29.9%

Question: And the viability, T/C (compound 3 µM)?
Answer: 22.4% and 21.6%

Question: What about the IC50 (curve of compound) of the same compound?
Answer: 26.9 nM and < 9.49 nM
